Source: patent US7414128B2, “Crystalline R-guanidines, Arginine or (L)-Arginine (2S)-2-Ethoxy-3-{4-[2-(10H -phenoxazin-10-yl)ethoxy]phenyl}propanoate” (Dr. Reddy's Laboratories, Limited, priority 2002, dated 2008)
Counter-ions that a name gives are not always drawn.

Experiments:
aqueous solubility = assay type: physicochemical; conditions: salt compared with the free acid
[1] = hygroscopicity at high relative humidity; assay type: physicochemical; conditions: even at relative humidities as high as 90 RH
bioavailability = conditions: attributed to the higher aqueous solubility
stability of the salt = assay type: physicochemical

CCO[C@@H](Cc1ccc(OCCN2c3ccccc3Oc3ccccc32)cc1)C(=O)O [(2S)-2-Ethoxy-3-{4-[2-(10H-phenoxazin-10-yl)ethoxy]phenyl}pr] [(2S)-2-Ethoxy-3-{4-[2-(10H-phenoxazin-10-yl)ethoxy]phenyl}propanoic acid]
solubility in aqueous media (aqueous solubility): sparingly soluble

CCO[C@@H](Cc1ccc(OCCN2c3ccccc3Oc3ccccc32)cc1)C(=O)O [(L)-Arginine salt, (L)-Arginine (2S)-2-Ethoxy-3-{4-[2-(10H-phenoxazin-10-yl)ethoxy]phenyl}propanoate]
solubility in aqueous media (aqueous solubility): significantly higher aqueous solubility | hygroscopicity [1]: not hygroscopic | bioavailability (bioavailability): good bioavailability | stability (stability of the salt): highly stable
